The values that follow come from PubChem BioAssay AID330 (DTP/NCI, 2004).

The structures appear in SMILES notation. Where “and” joins values, the source holds several entries; their conditions need not be identical. Equal values may be shown once. Inconclusive results and toxic doses are left out.

The assay has as its system P388 leukemia ip, CD2F1 mice, survival T/C. Kind of assay: NCI In Vivo Anticancer Drug Screen. Data for tumor model P388 Leukemia (intraperitoneal) in CD2F1 (CDF1) mice. Particulars: endpoint: median survival time, higher = longer survival. Put shortly: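 Mice carrying the transplanted tumor received test compound or vehicle. Survival was recorded in each group, and the value is the treated-group measurement divided by that of the vehicle-treated control group.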

Where [1] appears, read: dose: 100.0 mg/kg/injection, schedule: Q04DX003 (ip), vehicle: saline with Tween-80.
Setting [2] is: dose: 200.0 mg/kg/injection, schedule: Q04DX003 (ip), vehicle: saline with Tween-80.
[3] abbreviates: dose: 400.0 mg/kg/injection, schedule: Q04DX003 (ip), vehicle: saline with Tween-80.
The mark [4] stands for this setting: dose: 25.0 mg/kg/injection, schedule: Q01DX005 (ip), vehicle: Klucel (hydroxypropylcellulose) (HPC).
[5] abbreviates: dose: 50.0 mg/kg/injection, schedule: Q01DX009 (ip), vehicle: Klucel (hydroxypropylcellulose) (HPC).
Setting [6] is: dose: 100.0 mg/kg/injection, schedule: Q01DX009 (ip), vehicle: Klucel (hydroxypropylcellulose) (HPC).

Consider `COc1ccc(C[C@H](N)C(=O)NC2C(CO)OC(n3cnc4c(N(C)C)ncnc43)C2O)cc1` (stereo partly drawn), for which the T/C (dose: 4.0 mg/kg/injection, schedule: Q03HX024 (ip), vehicle: saline) was 115 % of control; the T/C (dose: 8.0 mg/kg/injection, schedule: Q01DX005 (ip), vehicle: saline) is 112 % of control; the T/C (dose: 8.0 mg/kg/injection, schedule: Q01DX009 (ip), vehicle: saline) was 107 % of control; the T/C (dose: 16.0 mg/kg/injection, schedule: Q01DX005 (ip), vehicle: saline) was 106 % of control; the T/C (dose: 16.0 mg/kg/injection, schedule: Q01DX009 (ip), vehicle: saline) was 100 % of control; the T/C (dose: 16.0 mg/kg/injection, schedule: Q03HX024 (ip), vehicle: saline) was 92 % of control. Also, the T/C runs as follows: (dose: 20.0 mg/kg/injection, schedule: Q01DX009 (ip), vehicle: water) 92 % of control; (dose: 22.0 mg/kg/injection, schedule: Q01DX009 (ip), vehicle: saline with Tween-80) 120 % of control; (dose: 32.0 mg/kg/injection, schedule: Q01DX005 (ip), vehicle: saline) 106 % of control; (dose: 32.0 mg/kg/injection, schedule: Q01DX009 (ip), vehicle: saline) 109 % of control; (dose: 32.0 mg/kg/injection, schedule: Q04DX003 (ip), vehicle: saline) 107 % of control; (dose: 33.0 mg/kg/injection, schedule: Q01DX009 (ip), vehicle: saline with Tween-80) 122 % of control. Moreover, the T/C is, setting by setting: (dose: 40.0 mg/kg/injection, schedule: Q01DX009 (ip), vehicle: water) 92 % of control; (dose: 60.0 mg/kg/injection, schedule: Q01DX009 (ip), vehicle: water) 90 % of control; (dose: 64.0 mg/kg/injection, schedule: Q01DX001 (ip), vehicle: saline) 101 % of control and 92 % of control; (dose: 64.0 mg/kg/injection, schedule: Q01DX005 (ip), vehicle: saline) 114 % of control; (dose: 64.0 mg/kg/injection, schedule: Q01DX009 (ip), vehicle: saline) 109 % of control; (dose: 64.0 mg/kg/injection, schedule: Q04DX003 (ip), vehicle: saline) 111 % of control. For the same molecule, the T/C is 92 % of control (dose: 80.0 mg/kg/injection, schedule: Q01DX009 (ip), vehicle: water); 95 % of control (dose: 100.0 mg/kg/injection, schedule: Q01DX009 (ip), vehicle: water); 104 % of control under setting [1]; 118 % of control and 97 % of control (dose: 128.0 mg/kg/injection, schedule: Q01DX001 (ip), vehicle: saline); 124 % of control (dose: 128.0 mg/kg/injection, schedule: Q01DX005 (ip), vehicle: saline); 118 % of control (dose: 128.0 mg/kg/injection, schedule: Q01DX009 (ip), vehicle: saline). Further, the T/C is 100 % of control (dose: 128.0 mg/kg/injection, schedule: Q04DX003 (ip), vehicle: saline); 150 % of control (dose: 150.0 mg/kg/injection, schedule: Q01DX009 (ip), vehicle: saline sonified); 95 % of control under setting [2]; 111 % of control (dose: 256.0 mg/kg/injection, schedule: Q01DX001 (ip), vehicle: saline); 90 % of control (dose: 256.0 mg/kg/injection, schedule: Q04DX003 (ip), vehicle: saline); 95 % of control under setting [3].

Regarding `CCCCCC[Se][Se]CCCCCC`, the T/C runs as follows: (dose: 3.12 mg/kg/injection, schedule: Q01DX005 (ip), vehicle: Klucel (hydroxypropylcellulose) (HPC)) 98 % of control; (dose: 6.25 mg/kg/injection, schedule: Q01DX005 (ip), vehicle: Klucel (hydroxypropylcellulose) (HPC)) 97 % of control; (dose: 12.5 mg/kg/injection, schedule: Q01DX005 (ip), vehicle: Klucel (hydroxypropylcellulose) (HPC)) 106 % of control; under setting [4], 104 % of control.

On to `COC(=O)C(CSCc1ccccc1)NC(=O)c1csc(CCNC(=O)c2ccccc2)n1` (stereo not drawn), for which the T/C (dose: 12.5 mg/kg/injection, schedule: Q01DX009 (ip), vehicle: DMSO) is 99 % of control; the T/C (dose: 25.0 mg/kg/injection, schedule: Q01DX009 (ip), vehicle: DMSO) is 99 % of control; the T/C (dose: 50.0 mg/kg/injection, schedule: Q01DX009 (ip), vehicle: DMSO) was 100 % of control; the T/C (dose: 100.0 mg/kg/injection, schedule: Q01DX009 (ip), vehicle: DMSO) was 101 % of control; the T/C (dose: 200.0 mg/kg/injection, schedule: Q01DX009 (ip), vehicle: DMSO) is 96 % of control.

As for `c1ccc(C2(c3ccccc3)CCc3ccccc3O2)cc1`, the T/C (dose: 100.0 mg/kg/injection, schedule: Q04DX003 (ip), vehicle: Klucel (hydroxypropylcellulose) (HPC)) is 105 % of control; the T/C (dose: 200.0 mg/kg/injection, schedule: Q04DX003 (ip), vehicle: Klucel (hydroxypropylcellulose) (HPC)) is 99 % of control; the T/C (dose: 400.0 mg/kg/injection, schedule: Q04DX003 (ip), vehicle: Klucel (hydroxypropylcellulose) (HPC)) was 99 % of control.

Take `O=S(=O)(O)OOS(=O)(=O)O`: the T/C is, setting by setting: under setting [5], 100 % of control; under setting [6], 87 % of control.

Consider `CC1(C)CC(OS(C)(=O)=O)CC(C)(C)N1O`, for which the T/C is 100 % of control under setting [5] and 99 % of control under setting [6].

For the molecule `CSc1ccc(Cl)cc1NC(=O)N(C)C`, the T/C reads like this: under setting [1], 98 % of control; under setting [2], 98 % of control; under setting [3], 96 % of control.

With `CN(C)S(=O)(=O)CC(O)C(Cl)(Cl)Cl` (stereo not drawn), the T/C runs as follows: (dose: 50.0 mg/kg/injection, schedule: Q01DX009 (ip), vehicle: saline) 100 % of control; (dose: 100.0 mg/kg/injection, schedule: Q01DX009 (ip), vehicle: saline) 98 % of control; (dose: 200.0 mg/kg/injection, schedule: Q01DX009 (ip), vehicle: saline) 98 % of control.

With `COC(=O)C(C)CP(=O)(O)OC` (stereo not drawn), the T/C was 97 % of control (dose: 50.0 mg/kg/injection, schedule: Q01DX005 (ip), vehicle: water); 98 % of control (dose: 100.0 mg/kg/injection, schedule: Q01DX005 (ip), vehicle: water); 114 % of control (dose: 200.0 mg/kg/injection, schedule: Q01DX005 (ip), vehicle: water).

On to `COc1ccc(CSC(=S)Nc2ccc(Cl)c([N+](=O)[O-])c2)cc1`, for which the T/C (dose: 50.0 mg/kg/injection, schedule: Q01DX009 (ip), vehicle: suspension in saline) was 108 % of control; the T/C (dose: 100.0 mg/kg/injection, schedule: Q01DX009 (ip), vehicle: suspension in saline) is 99 % of control; the T/C (dose: 200.0 mg/kg/injection, schedule: Q01DX009 (ip), vehicle: suspension in saline) is 99 % of control.

In the case of `C1=Cc2ccccc2CS1`, the T/C (dose: 25.0 mg/kg/injection, schedule: Q01DX009 (ip), vehicle: other) is 106 % of control; the T/C (dose: 50.0 mg/kg/injection, schedule: Q01DX009 (ip), vehicle: other) is 116 % of control; the T/C (dose: 100.0 mg/kg/injection, schedule: Q01DX009 (ip), vehicle: other) was 108 % of control; the T/C (dose: 200.0 mg/kg/injection, schedule: Q01DX009 (ip), vehicle: other) was 88 % of control; the T/C (dose: 400.0 mg/kg/injection, schedule: Q01DX009 (ip), vehicle: other) was 88 % of control.

For the molecule `CS(=O)(=O)CC#N`, the T/C was 96 % of control (dose: 7.5 mg/kg/injection, schedule: Q01DX005 (ip), vehicle: saline); 100 % of control (dose: 15.0 mg/kg/injection, schedule: Q01DX005 (ip), vehicle: saline); 95 % of control (dose: 30.0 mg/kg/injection, schedule: Q01DX005 (ip), vehicle: saline).

`C[Si](C)(C)C1OC1[Si](C)(C)C` (stereo not drawn): the T/C by setting is: (dose: 50.0 mg/kg/injection, schedule: Q04DX002 (ip), vehicle: other) 103 % of control; (dose: 100.0 mg/kg/injection, schedule: Q04DX002 (ip), vehicle: other) 105 % of control; (dose: 200.0 mg/kg/injection, schedule: Q04DX002 (ip), vehicle: other) 108 % of control.

As to `CC1CN(CC#CCN2C(=O)CCC2=O)CC(C)O1` (stereo not drawn), the T/C reads like this: under setting [4], 103 % of control; (dose: 50.0 mg/kg/injection, schedule: Q01DX005 (ip), vehicle: Klucel (hydroxypropylcellulose) (HPC)) 107 % of control; (dose: 100.0 mg/kg/injection, schedule: Q01DX005 (ip), vehicle: Klucel (hydroxypropylcellulose) (HPC)) 103 % of control; (dose: 200.0 mg/kg/injection, schedule: Q01DX005 (ip), vehicle: Klucel (hydroxypropylcellulose) (HPC)) 107 % of control.
